Experimental data: ChEMBL document CHEMBL3045318, “Synthesis and Antimicrobial Evaluation of Some t(3)-Alkyl and t(3),t(5)-Dimethyl-r(2),c(6)-DI-2-Furfurylpiperidin-4-one and its Derivatives” (2005)
Values after ≈ are worked out from the molar mass of the structure shown. Active and inactive are the calls of the source. The calls are words filed in the database; no cut-off is given here.

Assays:
Cryptococcus neoformans [1] = assay: Antimicrobial activity against Cryptococcus neoformans at 200 ug/ml after 72 to 96 hr by serial dilution method; type: functional, organism-based
Pseudomonas aeruginosa [2] = assay: Antimicrobial activity against Pseudomonas aeruginosa at 100 ug/ml after 24 hr by serial dilution method; type: functional, organism-based
Aspergillus flavus [3] = assay: Antimicrobial activity against Aspergillus flavus after 72 to 96 hr by serial dilution method; type: functional
Aspergillus niger [4] = assay: Antimicrobial activity against Aspergillus niger after 72 to 96 hr by serial dilution method; type: functional
Candida [5] = assay: Antimicrobial activity against Candida-51 after 72 to 96 hr by serial dilution method; type: functional
Candida [6] = assay: Antimicrobial activity against Candida 6 after 72 to 96 hr by serial dilution method; type: functional
Klebsiella pneumoniae [7] = assay: Antimicrobial activity against Klebsiella pneumoniae after 24 hr by serial dilution method; type: functional
Escherichia coli = assay: Antimicrobial activity against Escherichia coli after 24 hr by serial dilution method; type: functional
Enterococcus faecalis [8] = assay: Antimicrobial activity against Enterococcus faecalis after 24 hr by serial dilution method; type: functional
Bacillus subtilis = assay: Antimicrobial activity against Bacillus subtilis after 24 hr by serial dilution method; type: functional
Cryptococcus neoformans [9] = assay: Antimicrobial activity against Cryptococcus neoformans at 100 ug/ml after 72 to 96 hr by serial dilution method; type: functional, organism-based
Cryptococcus neoformans [10] = assay: Antimicrobial activity against Cryptococcus neoformans after 72 to 96 hr by serial dilution method; type: functional
Pseudomonas aeruginosa [11] = assay: Antimicrobial activity against Pseudomonas aeruginosa after 24 hr by serial dilution method; type: functional
Aspergillus niger [12] = assay: Antimicrobial activity against Aspergillus niger at 200 ug/ml after 72 to 96 hr by serial dilution method; type: functional, organism-based
Klebsiella pneumoniae [13] = assay: Antimicrobial activity against Klebsiella pneumoniae at 100 ug/ml after 24 hr by serial dilution method; type: functional, organism-based
Aspergillus niger [14] = assay: Antimicrobial activity against Aspergillus niger at 100 ug/ml after 72 to 96 hr by serial dilution method; type: functional, organism-based
Aspergillus flavus [15] = assay: Antimicrobial activity against Aspergillus flavus at 200 ug/ml after 72 to 96 hr by serial dilution method; type: functional, organism-based
Enterococcus faecalis [16] = assay: Antimicrobial activity against Enterococcus faecalis at 100 ug/ml after 24 hr by serial dilution method; type: functional, organism-based
Aspergillus flavus [17] = assay: Antimicrobial activity against Aspergillus flavus at 100 ug/ml after 72 to 96 hr by serial dilution method; type: functional, organism-based

MIC (Aspergillus niger [4]) [µg/mL]	MIC (Klebsiella pneumoniae [7]) [µg/mL]	MIC (Cryptococcus neoformans [10]) [µg/mL]	MIC (Pseudomonas aeruginosa [11]) [µg/mL]	Compound	inhibition (Cryptococcus neoformans [1])	inhibition (Pseudomonas aeruginosa [2])	MIC (Aspergillus flavus [3]) [µg/mL]	MIC (Candida [5]) [µg/mL]	MIC (Candida [6]) [µg/mL]	MIC (Escherichia coli) [µg/mL]	MIC (Enterococcus faecalis [8]) [µg/mL]	MIC (Bacillus subtilis) [µg/mL]	inhibition (Cryptococcus neoformans [9])	inhibition (Aspergillus niger [12])	inhibition (Klebsiella pneumoniae [13])	inhibition (Aspergillus niger [14])	inhibition (Aspergillus flavus [15])	inhibition (Enterococcus faecalis [16])	inhibition (Aspergillus flavus [17])
100 (≈ 384 µM)	12.5 (≈ 48 µM)	25 (≈ 96 µM)	25 (≈ 96 µM)	CC1/C(=N\O)CC(c2ccco2)NC1c1ccco1 (stereo unspecified)	–	–	50 (≈ 192 µM)	12.5 (≈ 48 µM)	50 (≈ 192 µM)	12.5 (≈ 48 µM)	25 (≈ 96 µM)	25 (≈ 96 µM)	–	–	–	–	–	–	–
–	–	–	–	CCC1C(=O)CC(c2ccco2)NC1c1ccco1 (stereo unspecified)	inactive	inactive	100 (≈ 386 µM)	100 (≈ 386 µM)	50 (≈ 193 µM)	25 (≈ 96.4 µM)	100 (≈ 386 µM)	25 (≈ 96.4 µM)	inactive	inactive	inactive	inactive	–	–	–
50 (≈ 182 µM)	6.25 (≈ 22.8 µM)	12.5 (≈ 45.6 µM)	12.5 (≈ 45.6 µM)	CCC1/C(=N\O)CC(c2ccco2)NC1c1ccco1 (stereo unspecified)	–	–	25 (≈ 91.1 µM)	12.5 (≈ 45.6 µM)	25 (≈ 91.1 µM)	25 (≈ 91.1 µM)	25 (≈ 91.1 µM)	25 (≈ 91.1 µM)	–	–	–	–	–	–	–
25 (≈ 91.1 µM)	6.25 (≈ 22.8 µM)	6.25 (≈ 22.8 µM)	50 (≈ 182 µM)	CC1C(=NO)C(C)C(c2ccco2)NC1c1ccco1 (stereo unspecified)	–	–	12.5 (≈ 45.6 µM)	12.5 (≈ 45.6 µM)	12.5 (≈ 45.6 µM)	25 (≈ 91.1 µM)	25 (≈ 91.1 µM)	25 (≈ 91.1 µM)	–	–	–	–	–	–	–
–	–	–	–	CC1C(=O)CC(c2ccco2)NC1c1ccco1 (stereo unspecified)	inactive	inactive	–	100 (≈ 408 µM)	100 (≈ 408 µM)	50 (≈ 204 µM)	–	50 (≈ 204 µM)	inactive	inactive	inactive	inactive	inactive	inactive	inactive

Compound	MIC (Aspergillus niger [4]) [µg/mL]	MIC (Klebsiella pneumoniae [7]) [µg/mL]	MIC (Cryptococcus neoformans [10]) [µg/mL]	MIC (Pseudomonas aeruginosa [11]) [µg/mL]	inhibition (Cryptococcus neoformans [1])	inhibition (Pseudomonas aeruginosa [2])	MIC (Aspergillus flavus [3]) [µg/mL]	MIC (Candida [5]) [µg/mL]	MIC (Candida [6]) [µg/mL]	MIC (Escherichia coli) [µg/mL]	MIC (Enterococcus faecalis [8]) [µg/mL]	MIC (Bacillus subtilis) [µg/mL]	inhibition (Cryptococcus neoformans [9])	inhibition (Aspergillus niger [12])	inhibition (Klebsiella pneumoniae [13])	inhibition (Aspergillus niger [14])	inhibition (Aspergillus flavus [15])	inhibition (Enterococcus faecalis [16])	inhibition (Aspergillus flavus [17])
CC1C(=O)C(C)C(c2ccco2)NC1c1ccco1 (stereo unspecified)	100 (≈ 386 µM)	100 (≈ 386 µM)	–	–	inactive	inactive	50 (≈ 193 µM)	50 (≈ 193 µM)	50 (≈ 193 µM)	12.5 (≈ 48.2 µM)	50 (≈ 193 µM)	12.5 (≈ 48.2 µM)	inactive	–	–	–	–	–	–
CN[C@@H]1[C@H](O[C@H]2[C@H](O[C@H]3[C@H](O)[C@@H](O)[C@H](N=C(N)N)[C@@H](O)[C@@H]3N=C(N)N)O[C@@H](C)[C@]2(O)C=O)O[C@@H](CO)[C@H](O)[C@H]1O [STREPTOMYCIN]	–	25 (≈ 43 µM)	–	25 (≈ 43 µM)	–	–	–	–	–	12.5 (≈ 21.5 µM)	50 (≈ 86 µM)	12.5 (≈ 21.5 µM)	–	–	–	–	–	–	–
C[C@@H]1[C@H](O)[C@@H](C)/C=C/C=C/C=C/C=C/C=C/C=C/C=C/[C@H](O[C@@H]2O[C@H](C)[C@@H](O)[C@H](N)[C@@H]2O)C[C@@H]2O[C@](O)(C[C@@H](O)C[C@@H](O)[C@H](O)CC[C@@H](O)C[C@@H](O)CC(=O)O[C@H]1C)C[C@H](O)[C@H]2C(=O)O [AMPHOTERICIN B]	50 (≈ 54.1 µM)	–	25 (≈ 27.1 µM)	–	–	–	50 (≈ 54.1 µM)	25 (≈ 27.1 µM)	25 (≈ 27.1 µM)	–	–	–	–	–	–	–	–	–	–
